Results as given in US8334248B2, “Aqueous solution of olanexidine, method of preparing the aqueous solution, and disinfectant” (Otsuka Pharmaceutical Co., Ltd., priority 2003, dated 2012).

Experiment: Solubility in water
Format: physicochemical
Text: Olanexidine has very poor solubility in water, and hitherto known salts of olanexidine are also poorly soluble in water. […] Consequently, sufficient bactericidal activity cannot be expected of an aqueous solution merely having olanexidine dissolved therein, and moreover, depending on the conditions the olanexidine may precipitate out.

Row | solubility in water (at 0° C.) | SMILES | solubility in water relative to olanexidine hydrochloride (compared with less than 0.05% (W/V) of the hydrochloride)
1 |  | CCCCCCCCNC(=N)NC(=N)NCc1ccc(Cl)c(Cl)c1 [free olanexidine, 1-(3,4-dichlorobenzyl)-5-octylbiguanide] | a further order of magnitude less than this
2 | less than 0.05 % (W/V) | CCCCCCCCN=C(N)NC(N)=NCc1ccc(Cl)c(Cl)c1.Cl [olanexidine hydrochloride] | 
